The test system of data set [1] is Candida albicans. The experiment in a line: MIC by Tube/Plate dilution method. It counts as cell-based. How it is done: (§1) The minimum inhibitory concentration (MIC) of an antibacterial is the maximum dilution of the product that will still inhibit the growth of a test microorganism. In Tube/Plate dilution method, serial dilutions of the products are made in bacterial growth media, incubated, and scored for growth. It was determined by Tube/Plate method.

Data set [2] concerns Escherichia coli. Nature of the data set: MIC by Tube/Plate dilution method. It is filed as cell-based. The procedure:
as §1

Data set [3] concerns Staph. aureus. The experiment in a line: MIC by Tube/Plate dilution method. It is filed as cell-based. The procedure:
as §1

Data set [4] relates to Ps. aeruginosa. The experiment in a line: MIC by Tube/Plate dilution method. It is filed as cell-based. The procedure: as §1
Data set [5] has as its system gm +ve and gm −ye micro-organism. Nature of the data set: Antibacterial efficacy by MIC, overall conclusion. It counts as cell-based. How it is done: as §1
The test system of data set [6] is M. furfur. The experiment in a line: Anti-dandruff efficacy, zone of inhibition. It is filed as cell-based, Malassezia furfur. An excerpt:
Comparison of Anti-Dandruff Efficacy Against M. furfur

Data set [7] concerns zein (corn protein).
From the text: The Zein test enables to determine the irritation potential (harshness) of a surfactant-based product (shower gel, shampoo, soap, washing-up liquid, etc.). It consists in making soluble a yellow corn protein that is similar to the keratin present in the skin and hair. The irritation potential of the product is directly proportional to the quantity of dissolved proteins. The Zein Test provides a rapid and convenient screen for irritation potential, especially for compositions that contain surface active agents.
This method involves measuring the solubility of zein (corn protein) in cleansing base solutions as follows.
To 40 mL of samples, 2 f 0.05 g of zein from corn was added. The solutions with zein were shaken in a shaker with water bath (60 min. at 35° C.). The solutions were filtered on Whatman No. 1 filters and then centrifuged at 5000 rpm for 10 min. The nitrogen content in the solutions was determined by Kjeldahl method. One millilitre of the filtrate was mineralized in sulfuric acid (98%) containing copper sulphate pentahydrate and potassium sulphate. After mineralization, the solution was transferred (with 50 mL of Milli-Q water) into the flask of the Wagner-Parnas apparatus. In the next step, 20 mL of sodium hydroxide (25 wt. %) was added. The released ammonia was distilled with steam. […]
The zein number (ZN) was calculated from the equation: ZN=(10−V1)·100·0.7 [mg N/100 mL] […]
The test system of data set [8] is M. furfur. The experiment in a line: Time kill method (ASTM E 2315-16). It is filed as cell-based, Malassezia furfur. As to conditions: 1% AI. An excerpt: Time Kill Method (at 1% AI) Against Test Organism M. furfur.

A value given as a limit tells only on which side of the number the result lay.

`C=CCCCCCCCCC(=O)NCCC[N+](C)(C)CC(O)COP(=O)([O-])OCC(O)C[N+](C)(C)CCCNC(=O)CCCCCCCCC=C.[Cl-]` (stereo not drawn) [UDAP PB, Undecylenamidopropyl PG-Dimonium Chloride Phosphate]: the MIC is on record as less than 200 ppm in data set [1], less than 300 ppm in data set [2], less than 300 ppm in data set [3] and less than 700 ppm in data set [4]. Also, in data set [5], the “Antibacterial efficacy” value is reported as “effective antibacterial”. Besides, the “Comments (zone of inhibition)” value in data set [6] (Active Conc. 1%) and in data set [6] (Active Conc. 2%) was “Effective” each time. For the same molecule, the “Zone of Inhibition (ZOI)” value in data set [6] (Active Conc. 1%) came out at 28 mm; in data set [6] (Active Conc. 2%), 33 mm. The “Zein Number (ZN)” value in data set [7] is given as 36 mg N/100 mL. For the same molecule, the “Antimicrobial Activity Log Reduction” value in data set [8] (exposure time 1 minute) and in data set [8] (exposure time 5 minutes) was greater than 4.19 Log in each case. The “Antimicrobial Activity Percentage reduction” value in data set [8] (exposure time 1 minute) and in data set [8] (exposure time 5 minutes) was greater than 99.99% each time. Moreover, the “Count of Test Organism After Exposure CFU/ml” value in data set [8] (exposure time 1 minute) and in data set [8] (exposure time 5 minutes) was less than 10 CFU/ml throughout. Moreover, the “Count of Test Organism After Exposure Log” value in data set [8] (exposure time 1 minute) and in data set [8] (exposure time 5 minutes) was less than 1 Log each time.

Take “zinc pyrithione [ZnPTO, reference compound]”: in data set [6] (Active Conc. 1%), the “Comments (zone of inhibition)” value is reported as “Effective” and the “Zone of Inhibition (ZOI)” value came out at 34 mm. In addition, in data set [6] (Active Conc. 2%), the “Comments (zone of inhibition)” value is on record as “Effective” and the “Zone of Inhibition (ZOI)” value turned out to be 41 mm. Further, in data set [8] (exposure time 1 minute), the “Antimicrobial Activity Log Reduction” value is greater than 3.95 Log, the “Antimicrobial Activity Percentage reduction” value is greater than 99.98%, the “Count of Test Organism After Exposure CFU/ml” value was less than 10 CFU/ml and the “Count of Test Organism After Exposure Log” value is on record as less than 1 Log. Further, in data set [8] (exposure time 5 minutes), the “Antimicrobial Activity Log Reduction” value was greater than 3.95 Log, the “Antimicrobial Activity Percentage reduction” value was greater than 99.98%, the “Count of Test Organism After Exposure CFU/ml” value is recorded as less than 10 CFU/ml and the “Count of Test Organism After Exposure Log” value is less than 1 Log.

Values taken from patent US11771634B2, “Antimicrobial antifungal composition” (GODREJ INDUSTRIES LIMITED, priority 2021, dated 2023).
